Values joined by “and” are separate entries in the source; they are usually repeats but may differ in a detail not shown here. Equal values may be shown once.
Columns and labels:
SKOV-3 cell line = test: Antiproliferative effect against the SKOV-3 cell line (GI50, cell count); format: cell-based, human; conditions: Homo sapiens, SK-OV-3, 72 h, 50% cell growth inhibition; 72 hours of treatment, cell count; ND = activity not dose dependent
Experimental: (§1) SKOV-3, A2780 and A2780 CIS were cultured and maintained, as previously described,[50] at 37 °C in RPMI 1640 medium (Euroclone) supplemented with 10% fetal bovine serum (FBS; Euroclone), L-glutamine and penicillin/streptomycin (SIGMA-ALDRICH). OVCA433, HEK-293T, HeLa, HCCLM3, SK-Hep-1, MCF-7, A549 and HCT-116 cells were maintained in DMEM medium (Euroclone) containing 10% FBS (Euroclone), L-glutamine and penicillin/streptomycin (SIGMA-ALDRICH). Wi-38 cells were cultured in DMEM medium (Euroclone) supplemented with 10% FBS (Euroclone), L-glutamine and penicillin/streptomycin (SIGMA-ALDRICH), and 1% non-essential amino acids (NEAA; Euroclone). The cultures were maintained in a constant temperature incubator at 37 °C with 5% CO2. […] Once cell adhesion had been promoted, the compounds were added to the culture medium. After 72 hours of treatment, the cells were counted, and the data analyzed by linear regression. Each experiment was carried out three times in triplicate and three separate cell counts were made for each sample. […] Afterwards, the concentration range was narrowed to the relative value obtained in the first evaluation in order to obtain an accurate value.

[1] = Cytotoxicity against non-tumor Wi-38 cells (CC50, cell count); format: cell-based; conditions: human, Wi-38 cells (non-tumor), 50% cytotoxicity concentration, 72 hours of treatment
Experimental: as §1

OVCA433 = test: Antiproliferative effect against OVCA433 (GI50); format: cell-based; conditions: Homo sapiens, 72 hours of treatment, cell count
Experimental: as §1

A2780 = test: Antiproliferative effect against A2780 (GI50); format: cell-based; conditions: Homo sapiens, 72 hours of treatment, cell count
Experimental: as §1

[2] = tested on: shRNA to siRNA maturation (GAPDH mRNA); test: RNAi enhancing activity (shRNA to siRNA maturation, GAPDH mRNA in HEK-293T_shGAPDH); format: cell-based, human; conditions: 50 μM, 48 hours
Experimental: HEK-293T_shSCR and HEK-293T_shGAPDH were treated with 50 μM of enoxacin and 33 for 48 hours before RNA extraction and expression analysis.
Lentiviral particles were produced by calcium phosphate transient transfection of HEK-293T cells with specific lentiviral plasmids (shGAPDH: TRCN0000445616 and shSCR: TRCN0000015937 from SIGMA-ALDRICH) together with the packaging plasmids (pLP1and pLP2) and the envelope plasmid pLP/VSVG. For each lentiviral plasmid one 150 mm plate of HEK293T cells was used for transfection. After 14–16 hours the medium was replaced with complete medium supplemented with 1 mM sodium butyrate (SIGMA-ALDRICH). The collection of medium containing lentiviral particles occurs 48 h and 72 h after transfection; complete medium supplemented with sodium butyrate was added after the first collection. […]
Total RNA was extracted using the Direct-zol RNA MiniPrep kit (Zymo Research) with on-column DNase treatment, according to the manufacturer's instructions. Reverse transcription was carried out with SuperScript VILO cDNA Synthesis Kit (Life Technologies) and the cDNA samples were analyzed by qRT-PCR using PowerUp SYBR Green Master Mix (Thermo Fisher Scientific). For miR-21 expression analysis total RNA was retrotranscribed using miRCURY® LNA® RT Kit (Qiagen) and the cDNA was analyzed by using miRCURY® LNA® miRNA PCR Assay (Qiagen). […]

miR-21-5p biogenesis = test: miR-21-5p luciferase reporter (psi-R21 / psi-CTRL) in HeLa cells; format: cell-based, human; conditions: 50 μM, 6 hours
Experimental: HeLa cells were transfected with 10 ng of psi-R21 or psi-CTRL using Lipofectamine™ 2000 (Thermo Fisher Scientific) and after 48 hours were treated with either enoxacin or 33 at 20 μM and 50 μM. After 6 hours Renilla luciferase (RLuc) and firefly luciferase (FLuc) activities were measured using the Dual-Luciferase® Reporter Assay System (Promega), following the manufacturer's instructions, and GloMax® Discover Microplate Reader (Promega).
The binding site for miR-21 was cloned into psiCHECK™-2 Vector (Promega), downstream the Renilla cDNA, by inverted PCR using the following oligonucleotides: 21MRE_FW […]; 21MRE_REV […]. The resulting construct was named psi-R21.

miR-21 = miR-21 expression in HeLa cells (qRT-PCR); format: cell-based, human; conditions: 50 μM, 6 hours
Experimental: Total RNA was extracted using the Direct-zol RNA MiniPrep kit (Zymo Research) with on-column DNase treatment, according to the manufacturer's instructions. Reverse transcription was carried out with SuperScript VILO cDNA Synthesis Kit (Life Technologies) and the cDNA samples were analyzed by qRT-PCR using PowerUp SYBR Green Master Mix (Thermo Fisher Scientific). For miR-21 expression analysis total RNA was retrotranscribed using miRCURY® LNA® RT Kit (Qiagen) and the cDNA was analyzed by using miRCURY® LNA® miRNA PCR Assay (Qiagen). The oligonucleotides used are the following: GAPDH_FW […]; GAPDH_REV […]; ATP5O_FW […]; ATP5O_REV […]; hsa-miR-21-5p miRCURY LNA miRNA PCR Assay (YP00204230); U6 snRNA (v2) miRCURY LNA miRNA PCR Assay (YP02119464).

[3] = tested on: several cancer cell lines; parameters: method as in PMID 21368194; conditions: wide panel of cancer cells; read-out: GI50 against several cancer cell lines; cited from earlier work

GI50 (SKOV-3 cell line): 125 µM
GI50 (A2780): 142 ± 8.73 µM
SMILES: CCn1cc(C(=O)O)c(=O)c2cc(F)c(N3CCNCC3)nc21 [Enoxacin, enoxacin, reference compound]
CC50 at 72 h [1]: 216 ± 123 µM
GI50 (OVCA433): 118 ± 8.89 µM
RNAi enhancing effect (GAPDH mRNA decrease) [2]: comparable
miRNA enhancing effect: Renilla luciferase activity, psi-R21 construct (miR-21-5p biogenesis): miRNA enhancing effect
miR-21 level in HeLa cells (miR-21): Upregulation of miR-21
GI50 [3]: ~125 µM and 125 µM

Source: article PMC11467779, “New anti-ovarian cancer quinolone derivatives acting by modulating microRNA processing machinery” (RSC Medicinal Chemistry, 2024)
